Experimental findings from ChEMBL document CHEMBL5154646, “Structure-guided optimization of 1H-imidazole-2-carboxylic acid derivatives affording potent VIM-Type metallo-β-lactamase inhibitors” (Eur J Med Chem, 2022) are described below.

As usually defined, the IC50 is the concentration that inhibits the measured activity by half. As usually defined, the MIC is the lowest concentration found to suppress growth.

Assay [1] relates to Escherichia coli. Nature of the assay: Potentiation of meropenem-induced antibacterial activity against Escherichia coli C1580 expressing VIM-2 assessed as fold reduction in meropenem MIC at 10 ug/ml incubated for 18 to 20 hrs by CLSI based broth microtiter dilution method. It is filed as functional. Conditions: dose 10 µg/ml; time 18-20 hrs.
The test system of assay [2] is Escherichia coli. Nature of the assay: Potentiation of meropenem-induced antibacterial activity against Escherichia coli C1541 expressing IMP-1 assessed as fold reduction in meropenem MIC at 10 ug/ml incubated for 18 to 20 hrs by CLSI based broth microtiter dilution method. The assay is classed as functional. Conditions: dose 10 µg/ml; time 18-20 hrs.
Assay [3] can be described thus: Inhibition of bacterial VIM-2 (27 to 266 residues) expressed in Escherichia coli Transetta (DE3) using FC-5 as substrate preincubated with enzyme for 10 mins followed by substrate addition by fluorescence based analysis. Also noted: species or system Bacteria.
Assay [4] has as its system Escherichia coli. The assay can be described thus: Potentiation of meropenem-induced antibacterial activity against Escherichia coli C1580 expressing VIM-2 assessed as meropenem MIC at 10 ug/ml incubated for 18 to 20 hrs by CLSI based broth microtiter dilution method (reference value: 32 ug/ml). Conditions: dose 10 µg/ml, time 18-20 hrs. The assay is classed as functional.

The nature of assay [5]: Inhibition of bacterial recombinant full length C-terminal-TEV-His6-tagged VIM-1 expressed in Escherichia coli Transetta using FC-5 as substrate preincubated with enzyme for 10 mins followed by substrate addition by fluorescence based analysis. Set-up: species or system Bacteria.
Assay [6] is described as follows: Inhibition of bacterial recombinant full length N-terminal-TEV-His6-tagged VIM-5 expressed in Escherichia coli Transetta using FC-5 as substrate preincubated with enzyme for 10 mins followed by substrate addition by fluorescence based analysis. Set-up: species or system Bacteria.
A short description of assay [7]: Inhibition of bacterial NDM-1 (1 to 270 residues) expressed in Escherichia coli Transetta (DE3) using FC-5 as substrate preincubated with enzyme for 10 mins followed by substrate addition by fluorescence based analysis. Set-up: species or system Bacteria.
The nature of assay [8]: Inhibition of bacterial IMP-1 (1 to 246 residues) expressed in Escherichia coli Transetta (DE3) using FC-5 as substrate preincubated with enzyme for 10 mins followed by substrate addition by fluorescence based analysis. Also noted: species or system Bacteria.
Assay [9] relates to Escherichia coli. The assay can be described thus: Potentiation of meropenem-induced antibacterial activity against Escherichia coli C1541 expressing VIM-2 assessed as meropenem MIC at 10 ug/ml incubated for 18 to 20 hrs by CLSI based broth microtiter dilution method (reference value: 16 ug/ml). It is filed as functional. To be noted: dose 10 µg/ml, time 18-20 hrs.
Assay [10] relates to Escherichia coli. The assay can be described thus: Potentiation of meropenem-induced antibacterial activity against Escherichia coli C1542 expressing VIM-2 assessed as meropenem MIC at 10 ug/ml incubated for 18 to 20 hrs by CLSI based broth microtiter dilution method (reference value: 16 ug/ml). It is filed as functional. Conditions: dose 10 µg/ml, time 18-20 hrs.
In assay [11] the test system is Escherichia coli. Nature of the assay: Potentiation of meropenem-induced antibacterial activity against Escherichia coli C1541 expressing IMP-1 assessed as meropenem MIC at 10 ug/ml incubated for 18 to 20 hrs by broth microtiter dilution method (reference value: 32 ug/ml). Conditions: dose 10 µg/ml, time 18-20 hrs. The assay is classed as functional.
Assay [12] concerns Pseudomonas aeruginosa. Nature of the assay: Potentiation of meropenem-induced antibacterial activity against Pseudomonas aeruginosa W35 expressing VIM-2 assessed as meropenem MIC at 100 ug/ml incubated for 18 to 20 hrs in presence of meropenem by CLSI based broth microtiter dilution method (reference value: 64 ug/ml). It is filed as functional. Conditions: dose 100 µg/ml, time 18-20 hrs.

Assay [13] concerns Pseudomonas aeruginosa. Nature of the assay: Potentiation of meropenem-induced antibacterial activity against Pseudomonas aeruginosa 5621 expressing VIM-2 assessed as meropenem MIC at 100 ug/ml incubated for 18 to 20 hrs in presence of meropenem by CLSI based broth microtiter dilution method (reference value: 64 ug/ml). Conditions: dose 100 µg/ml, time 18-20 hrs. It is filed as functional.

The test system of assay [14] is Escherichia coli. Nature of the assay: Potentiation of meropenem-induced antibacterial activity against Escherichia coli C1541 expressing VIM-2 assessed as fold reduction in meropenem MIC at 10 ug/ml incubated for 18 to 20 hrs by CLSI based broth microtiter dilution method. It is filed as functional. Conditions: dose 10 µg/ml; time 18-20 hrs.
Assay [15] has as its system Pseudomonas aeruginosa. The assay can be described thus: Potentiation of meropenem-induced antibacterial activity against Pseudomonas aeruginosa 5621 expressing VIM-2 assessed as fold reduction in meropenem MIC at 100 ug/ml incubated for 18 to 20 hrs by CLSI based broth microtiter dilution method. The assay is classed as functional. Conditions: dose 100 µg/ml; time 18-20 hrs.

Assay [16] relates to Escherichia coli. Nature of the assay: Potentiation of meropenem-induced antibacterial activity against Escherichia coli C1542 expressing VIM-2 assessed as fold reduction in meropenem MIC at 10 ug/ml incubated for 18 to 20 hrs by CLSI based broth microtiter dilution method. To be noted: dose 10 µg/ml; time 18-20 hrs. The assay is classed as functional.
In assay [17] the test system is Pseudomonas aeruginosa. Nature of the assay: Potentiation of meropenem-induced antibacterial activity against Pseudomonas aeruginosa W35 expressing VIM-2 assessed as fold reduction in meropenem MIC at 100 ug/ml incubated for 18 to 20 hrs by CLSI based broth microtiter dilution method. The assay is classed as functional. To be noted: dose 100 µg/ml; time 18-20 hrs.

SMILES strings stand for the structures.

Take `NCc1ccc(Cn2ccnc2C(=O)O)cc1`: the “fold change (FC)” value in assay [1] is on record as 2; in [2], 1; in assay [14], 2; in assay [15], 2; in assay [16] it was 1; in [17] it was 4. The IC50 in [3] is 3.89 µM; in assay [5] it was 8.55 µM; in assay [6] it was 18.2 µM; in [7], 165 µM; in [8], 75.5 µM. Moreover, the MIC in assay [4] is 16 µg/mL; in [9] it was 8 µg/mL; in [10], 16 µg/mL; in assay [11], 32 µg/mL; in assay [12] it was 16 µg/mL; in assay [13] it was 32 µg/mL.

In the case of `O=C(O)c1nccn1Cc1cc(Br)cs1`, the “fold change (FC)” value came out at 8 in [1]; 1 in [2]; 8 in assay [14]; 1 in [15]; 4 in [16]; 2 in assay [17]. Also, the IC50 in [3] came out at 0.43 µM; in [5] it was 24.9 µM; in [6], 2.47 µM; in assay [7] it was 111 µM; in assay [8], 20.3 µM. Further, the minimal inhibitory concentration (MIC) turned out to be 4 µg/mL in assay [4]; 2 µg/mL in assay [9]; 4 µg/mL in assay [10]; 32 µg/mL in [11]; 32 µg/mL in assay [12]; 64 µg/mL in assay [13].

With `Cc1cnc(C(=O)O)n1Cc1ccccc1`, the “fold change (FC)” value in assay [1] is 32; in assay [2] it was 1; in assay [14], >64; in assay [15], 2; in [16] it was 32; in assay [17] it was 4. Further, the IC50 in assay [3] was 0.48 µM; in [5], 3.18 µM; in [6] it was 2.2 µM; in assay [7], 29.7 µM; in assay [8], 86.5 µM. Also, the MIC in assay [4] is 1 µg/mL; in [9], < 0.25 µg/mL; in [10], 0.5 µg/mL; in assay [11], 32 µg/mL; in assay [12] it was 16 µg/mL; in assay [13] it was 32 µg/mL.

As for `C=CCCn1c(C)cnc1C(=O)O`, the “fold change (FC)” value in [1] is reported as 4; in assay [2], 1; in [14], 16; in assay [16], 8. The half-maximal inhibitory concentration (IC50) in assay [3] worked out at 0.8 µM; in assay [5], 37.3 µM; in [6], 3.77 µM; in [7] it was 144 µM; in assay [8], 48.6 µM. The MIC in assay [4] came to 8 µg/mL; in assay [9], 1 µg/mL; in [10], 2 µg/mL; in assay [11], 32 µg/mL.

Take `N#Cc1ccc(Cn2ccnc2C(=O)O)cc1`: the “fold change (FC)” value in [1] is listed as 32; in assay [2] it was 1; in [14], >64; in assay [15], 1; in [16] it was >64; in assay [17] it was 2. The 50% inhibitory concentration (IC50) was 0.29 µM in assay [3]; 8.69 µM in [5]; 0.12 µM in assay [6]; 227 µM in assay [7]; 30.1 µM in [8]. Also, the minimal inhibitory concentration (MIC) is 1 µg/mL in [4]; < 0.25 µg/mL in assay [9]; < 0.25 µg/mL in assay [10]; 32 µg/mL in assay [11]; 32 µg/mL in [12]; 64 µg/mL in assay [13].

Consider `O=C(O)c1nccn1Cc1ccccc1`, for which the “fold change (FC)” value in assay [1] was 2; in assay [2], 1; in assay [14], 1; in [15], 1; in [16], 1; in [17] it was 2. The IC50 in [3] came to 0.48 µM; in assay [5], 4.14 µM; in [6], 1.55 µM; in assay [7] it was 63.5 µM; in [8], 32.1 µM. The minimal inhibitory concentration (MIC) in [4] came to 16 µg/mL; in assay [9] it was 16 µg/mL; in [10] it was 16 µg/mL; in assay [11], 32 µg/mL; in assay [12] it was 32 µg/mL; in [13], 64 µg/mL.

Take `O=C(O)c1nccn1Cc1ccc(O)cc1`: the “fold change (FC)” value is on record as 8 in assay [1]; 1 in [2]; 16 in assay [14]; 1 in assay [15]; >64 in assay [16]; 4 in [17]. Further, the IC50 is 0.17 µM in [3]; 5.04 µM in [5]; 1.12 µM in [6]; 118 µM in assay [7]; 9.55 µM in [8]. The minimal inhibitory concentration (MIC) was 4 µg/mL in assay [4]; 1 µg/mL in [9]; < 0.25 µg/mL in assay [10]; 32 µg/mL in assay [11]; 16 µg/mL in [12]; 64 µg/mL in [13].

`COc1ccc(Cn2ccnc2C(=O)O)cc1`: the “fold change (FC)” value is listed as 32 in [1]; 1 in [2]; 32 in assay [14]; 1 in assay [15]; >64 in [16]; 4 in [17]. For the same compound, the 50% inhibitory concentration (IC50) worked out at 0.38 µM in assay [3]; 13 µM in assay [5]; 0.84 µM in [6]; 157 µM in [7]; 10.9 µM in assay [8]. The minimal inhibitory concentration (MIC) in [4] was 1 µg/mL; in [9], 0.5 µg/mL; in [10], < 0.25 µg/mL; in assay [11], 32 µg/mL; in [12], 16 µg/mL; in [13], 64 µg/mL.

In the case of `Nc1nc2c(Cn3ccnc3C(=O)O)cccc2s1`, the “fold change (FC)” value in [1] is 32; in assay [2], 1; in [14], 32; in assay [15] it was 1; in [16] it was >64; in assay [17], 1. Moreover, the IC50 in [3] worked out at 0.16 µM; in assay [5], 1.89 µM; in [6], 1.04 µM; in [7] it was 131 µM; in assay [8], 217 µM. Further, the minimal inhibitory concentration (MIC) in [4] was 1 µg/mL; in assay [9], 0.5 µg/mL; in [10], < 0.25 µg/mL; in assay [11], 32 µg/mL; in assay [12], 64 µg/mL; in assay [13], 64 µg/mL.

Consider `C=CCCn1ccnc1C(=O)O`, for which the “fold change (FC)” value in [1] came out at 1; in [2], 1; in [14], 1; in assay [16] it was 2. The IC50 in assay [3] is 1.05 µM; in assay [5], 14.8 µM; in assay [6] it was 4.72 µM; in [7] it was > 300 µM; in assay [8] it was > 300 µM. For the same compound, the MIC was 32 µg/mL in assay [4], 16 µg/mL in assay [9], 8 µg/mL in assay [10] and 32 µg/mL in assay [11].
